Measurements from PubChem BioAssay (NCI).
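Protocol summary: plate cells (96-well), add compound at 5 concentrations, incubate 48 h, interpolate endpoints linearly. TGI: concentration producing complete growth inhibition.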

Legend:
Experiment in all cases: NCI tumour cell line growth inhibition, 48 h
[1] = system: RXF-631 renal
[2] = system: DMS 273 small cell lung
[3] = system: DLD-1 colon
[4] = system: M19-MEL melanoma
[5] = system: HOP-18 NSCLC
[6] = system: DMS 114 small cell lung
[7] = system: BT-549 breast
[8] = system: P388 leukemia
[9] = system: MDA-MB-231 breast
[10] = system: P388/ADR leukemia
[11] = system: MDA-N

SMILES	TGI [1] [µM]	TGI [2] [µM]	TGI [3] [µM]	TGI [4] [µM]	TGI [5] [µM]	TGI [6] [µM]	TGI [7] [µM]	TGI [8] [µM]	TGI [9] [µM]	TGI [10] [µM]	TGI [11] [µM]
COC(=O)C(=O)C(C(=O)C=C(C)C)C(=O)C(=O)Nc1cccc(C(C)=O)c1 (stereo not given)	> 100	> 100	> 100	> 100	> 100	> 100					
O=C1C(=O)N(C2C3CC4CC(C3)CC2C4)C(=O)C(=O)C1c1nc2ccccc2o1 (stereo not given)	> 100	> 100	92.9	> 100	> 100	44.7					
O=C1CC2C(=O)N(Cc3ccccc3)C1C(S(=O)(=O)c1ccccc1)C2S(=O)(=O)c1ccccc1 (stereo not given)	28.1	18.6	3.13	4.09	13.8	2.72					
CCSc1nc(COC(=O)NC)c(COC(=O)NC)n1C	> 100	> 100	> 100	> 79.9	> 100	> 76.2	> 100	> 100	> 100	> 100	> 100
CCOC(=O)N1C2C=C(C)C(C3C(C)C(=O)N31)N(C(=O)c1ccccc1)O2 (stereo not given)	> 100	> 100	> 100	> 100	> 100	> 100					
Clc1ccc(CN2COc3c(cc(Cl)c4cccnc34)C2)cc1	23.1	3.53	13.6	6.06	16.4	3.73					
CC(=O)Oc1ccccc1C(=O)C1c2cccc(O)c2C(=O)c2c(O)cccc21	11.1	3.8	12.2	2.94	4.87	1.28					
COC(=O)C(Cc1nc2ccc(Cl)cc2[nH]c1=O)C(=O)C(=O)Nc1ccccc1[N+](=O)[O-] (stereo not given)	> 100	> 100	> 100	> 100	> 100	> 100					
CN(C)CCNC(=O)c1ccc(Cl)c2c(Nc3ccc(S(N)(=O)=O)cc3)c3ccccc3nc12	11.6	8.09	8.85	4.52	5.92	4.63					
COc1ccc2cc3n(c2c1)CCc1cc(OC)c(OC)cc1-3	> 100	> 100	> 100	> 100	> 100	> 100					
